Experimental data from patent US10004683B2, “Antimicrobial formulations” (Common Pharma, Inc., priority 2015, dated 2018).

Test system: New Zealand White Rabbits
Test: Dermal irritation test, ISO 10993-10:2010
Conditions: rabbits inspected at 1, 24, 48 and 72 hours; scale 0 to 0.4 Negligible, 0.5 to 1.9 Slight, 2 to 4.9 Moderate, 5 to 8 Severe
Description: The test was performed according to ISO 10993-10:2010. The test sample was 2% Noveon and 2% boric acid in water. A placebo was also tested which was only 2% Noveon in water. All testing was under GLP conditions. A negative control was used which was 0.9% Sodium Chloride for Injection, USP and a positive control was used which was 20% W/V of sodium dodecyl sulfate (SDS) in water.
The test animals were inspected at times 1, 24, 48 and 72 hours.

SMILES: CCCCCCCCCCCCOS(=O)(=O)[O-].[Na+] [positive control, sodium dodecyl sulfate]
- dermal irritation observational rankings: 2-4
